From US20120164117A1, “METHODS OF GENERATING HUMAN CARDIAC CELLS AND TISSUES AND USES THEREOF” (TECHNION RESEARCH & DEVELOPMENT FOUNDATION LTD., priority 2001, published 2012)
Like-named read-outs stand apart in the source and are kept apart here.

How the values were obtained:
[1] = tested on: human embryonic stem cell line H9.2 embryoid bodies; assay: Cardiomyocyte differentiation efficiency, percentage of contracting embryoid bodies; format: cell-based
Text: Generation of human embryonic stem cell-derived cardiomyocytic cells: Ten different human embryonic stem cell lines including line H9 or its single cell clonal derivative H9.2 (Amit, M. et al., 2000. Dev. Biol. 227: 271) were individually grown on a mitotically inactivated (mitomycin C) mouse embryonic fibroblast feeder cell layer in culture medium, as previously described (Thomson, J. A. et al., 1998. Science 282: 1145). The culture medium consisted of 80% knockout DMEM (no-pyruvate, high-glucose formulation; Life Technologies, Inc., Rockville, Md., USA.) supplemented with 20% FBS (HyClone, Logan, Utah, USA.), 1 mM L-glutamine, 0.1 mM mercaptoethanol, and 1% nonessential amino acid stock (all from GIBCO-BRL). To induce differentiation, embryonic stem cells were dispersed into small clumps (3-20 cells) using collagenase IV (Life Technologies, Inc., 1 mg/ml for 20 minutes). […] The percentage of embryoid bodies displaying contracting areas, as well as the distribution of the timing of onset of spontaneous beating were evaluated. […] In addition, the effect of DMSO, a known stimulant of differentiation into cardiomyocytic lineage was assessed by adding dimethyl sulfoxide (Sigma Chemical Co., St. Louis, Mo., USA.) at a concentration of 0.75% (vol/vol) to the culture medium during the 10 days of growth in suspension. […]

[2] = tested on: human embryonic stem cell-derived cardiomyocytic tissue (contracting embryoid bodies); assay: Pharmacological analysis of conduction, multielectrode array activation mapping of embryoid bodies; format: cell-based; set-up: Global Velocity / Mean CV Vector: unit not given here; settings: for total activation time: one embryoid body
[3] = tested on: hybrid rat ventricular myocyte-human embryonic stem cell-derived cardiomyocyte co-cultures; assay: Electrical coupling in hybrid human ES cell-derived cardiomyocyte / neonatal rat ventricular myocyte co-cultures on microelectrode array; format: cell-based
Procedure: Performed as described above in Example 2 of the Examples section. Primary monolayer cultures of neonatal rat (Sprague Dawley) ventricular myocytes were prepared as previously described (Fast V G. and Kleber A G., 1993. Circ Res. 73:914). Briefly, following excision, the ventricles were minced and treated with RDB (IIBR, Ness-Ziona, Israel). Dispersed cells were then cultured on gelatin coated (0.1%) microelectrode array plates or on glass cover slips at a density of 1.5×10^6 cells/ml. […] Pacing studies in co-cultures were performed by electrically stimulating the human or rat tissues with one of the electrodes of the multielectrode array. The degree of electrical coupling between the two tissue types was also assessed during long term recordings and during adrenergic stimulation and partial gap junction uncoupling. The cycle-lengths of the electrical activity in the ES cell-derived cardiomyocytes and in the rat tissue were measured and a histogram depicting the ratio between these two cycle-lengths during long-term recordings is shown in FIG. 16i.

[4] = tested on: human embryonic stem cell-derived cardiomyocytic cells (contracting embryoid bodies); assay: Chronotropic responses of contracting embryoid bodies, multielectrode array extracellular recordings; format: cell-based; settings: for spontaneous contraction rate, % of baseline (initial) value: drug at 10^−6 M (1 μM)
Text: Multielectrode array (MEA) extracellular electrophysiology mapping and pharmacological studies: Intact contracting areas within the embryoid bodies were mechanically dissected using a pulled-glass micropipette and plated on gelatin-coated multielectrode arrays (Multi Channel Systems MCS GmbH, Reutlingen, Germany; Igelmund, P. et al., 1999. Pflugers Arch. 437: 669). The microelectrode array consists of 60 titanium nitride electrodes with gold contacts 30 μm in diameter with an interelectrode distance of 100-200 μm. The contracting areas were plated on top of the microelectrode arrays and cells were grown to confluence over the electrodes. […] Extracellular signals were recorded simultaneously from all 60 electrodes at 25 kHz and band-pass filtered from 1 to 3000 Hz. Recordings were performed in culture medium at 37° C. A pH of 7.4 was maintained using perfusion with an atmosphere containing 5% CO2 and 95% air. Chronotropic responses were assessed by extracellular recordings for 10 minutes prior to and following […], 1 μM carbamylcholine, 10 μM 3-isobutyl-1-methylxanthine (IBMX), or 1 μM forskolin (all from Sigma). Statistical analysis: Data are expressed as mean ±standard deviation. In order to assess possible chronotropic effects, the average spontaneous beating rate was compared prior to and following drug application using two-tailed paired Student's t test.

[5] = tested on: swine model of complete atrioventricular block; assay: Swine complete atrioventricular block model transplanted with human ES cell-derived cardiomyocytic cells, rate of new ventricular rhythm; format: in vivo; settings: following isoproterenol (20 μM); rate before 68±4 beats/minute
[6] = extracellular potassium 10 mM, n=7
[7] = extracellular potassium 15 mM, n=7
[8] = extracellular potassium 20 mM, n=7

C[S+](C)[O-] [DMSO, dimethyl sulfoxide]
increase of the percentage of embryoid bodies with cells displaying cardiac lineage differentiation ([1]; 0.75 percent (v/v) dimethyl sulfoxide): about 20%
percentage of embryoid bodies demonstrating contracting areas ([1]; DMSO 0.75% (vol/vol) during suspension, 8.1% without): 10.1%

COc1ccc([C@@H]2Sc3ccccc3N(CCN(C)C)C(=O)[C@@H]2OC(C)=O)cc1.Cl [Diltiazem, diltiazem hydrochloride]
Global Velocity [2]: 2.8 ± 2.0
Maximal − dv/dt [2]: 2.5 ± 4.2 mV/sec
Mean CV Vector [2]: 5.7 ± 4.2
changes in the conduction parameters studied (global velocity, local velocity vector, −dV/dtmax) [2]: did not result in significant changes

CCCCCCCO [Heptanol, 1-Heptanol]
co-cultures in which tight coupling was not altered ([3]; 1-Heptanol 0.5 mM): 5 of the 8
co-cultures with occasional episodes of 2:1 conduction block ([3]; 1-Heptanol 0.5 mM, 8 co-cultures studied): 3
total activation time ([2]; 1-heptanol 0.3 mM, baseline 15 milliseconds): 32 milliseconds
effect of higher doses on beating ([2]; 1-heptanol 0.6 and 1 mM, n=8): complete cessation of beating
Global Velocity ([2]; heptanol 0.3 mM, n=7): 1.7 ± 0.6
Maximal − dv/dt ([2]; heptanol 0.3 mM, n=7): 2.0 ± 2.3 mV/sec
Mean CV Vector ([2]; heptanol 0.3 mM, n=7): 3.0 ± 5.7
Global Velocity ([2]; heptanol 0.6 mM): 1.2 ± 0.9
Maximal − dv/dt ([2]; heptanol 0.6 mM): 2.1 ± 3.0 mV/sec
Mean CV Vector ([2]; heptanol 0.6 mM): 3.0 ± 3.8
Global Velocity ([2]; heptanol 1 mM): No conduction
Maximal − dv/dt ([2]; heptanol 1 mM): No conduction
Mean CV Vector ([2]; heptanol 1 mM): No conduction

CC(C)Cn1c(=O)n(C)c(=O)c2[nH]cnc21 [IBMX, 3-isobutyl-1-methylxanthine]
spontaneous contraction rate, % of initial value ([4]; 10 μM IBMX, n=6, mean ± SD): 152±77%

CC(C)NCC(O)c1ccc(O)c(O)c1 (centres unmarked) [Isoproterenol, isoproterenol]
heart rate of the new ventricular rhythm [5]: 105±10 beats/minute
electrical coupling between the two cell types ([3]; isoproterenol 10 μM): not hindered
spontaneous beating rate ([3]; isoproterenol 10 μM, base line 1.6±0.6 Hz, p<0.05): 1.9±0.8 Hz
chronotropic response of contracting embryoid bodies ([4]; 10 μM isoproterenol): positive chronotropic responses
spontaneous contraction rate, % of baseline (initial) value ([4]; mean ± SD): 146±43%

[K+] [Potassium]
Global Velocity [2, 6]: 1.6 ± 0.6
Maximal − dv/dt [2, 6]: 2.7 ± 5.5 mV/sec
Mean CV Vector [2, 6]: 3.5 ± 4.2
total activation time ([2]; extracellular potassium 10 mM, baseline 25 milliseconds): 40 milliseconds
Global Velocity [2, 7]: 1.0 ± 0.3
Maximal − dv/dt [2, 7]: 1.1 ± 1.4 mV/sec
Mean CV Vector [2, 7]: 2.0 ± 2.3
total activation time ([2]; extracellular potassium 15 mM, baseline 25 milliseconds): 70 milliseconds
Global Velocity [2, 8]: 1.0 ± 0.4
Maximal − dv/dt [2, 8]: 1.1 ± 1.2 mV/sec
Mean CV Vector [2, 8]: 1.5 ± 1
total activation time ([2]; extracellular potassium 20 mM, baseline 25 milliseconds): 120 milliseconds

NC1=N[C@H](O)[C@H]2[C@H]3O[C@]4(O)O[C@@H]([C@@H](O)[C@@]2(N1)[C@@H]4O)[C@]3(O)CO [TTX, tetrodotoxin]
Global Velocity [2]: 1.8 ± 0.9
Maximal − dv/dt [2]: 1.9 ± 1.9 mV/sec
Mean CV Vector [2]: 3.2 ± 3
total microelectrode array activation time [2]: 35 milliseconds

CN1[C@@H]2CC[C@H]1C[C@@H](OC(=O)C(CO)c1ccccc1)C2 (some centres unmarked) [atropine]
effect on carbamylcholine-induced decrease of spontaneous contraction rate [4]: reversed

C[N+](C)(C)CCOC(N)=O.[Cl-] [carbamylcholine]
spontaneous contraction rate, % of baseline (initial) value ([4]; mean ± SD): 78±20%

C=C[C@@]1(C)CC(=O)[C@]2(O)[C@@]3(C)[C@@H](O)CCC(C)(C)[C@@H]3[C@H](O)[C@H](OC(C)=O)[C@@]2(C)O1 [forskolin]
spontaneous contraction rate, % of baseline (initial) value ([4]; mean ± SD): 182±48%
